{
  "source": "patent US10835533B2",
  "about": "“1 -((3S,4R)-4-(3-fluorophenyl)-1-(2-methoxyethyl)pyrrolidin-3-yl)-3-(4-methyl-3-(2-methylpyrimidin-5-yl)-1-phenyl-1H-pyrazol-5-yl)urea as a TrkA kinase inhibitor” (Array BioPharma Inc., priority 2014, dated 2020)",
  "experiment_in_all_cases": "KinaseProfiler kinase profiling",
  "type_in_all_cases": "biochemical",
  "conditions_in_all_cases": "10 μM, ATP near Km",
  "key": {"Flt4": {"target": "T1, Flt4 (Homo sapiens, UniProt P35916)", "T1 construct": "purchased Millipore, Inc. (KinaseProfiler service)", "T1 sequence (P35916 25-1363)": "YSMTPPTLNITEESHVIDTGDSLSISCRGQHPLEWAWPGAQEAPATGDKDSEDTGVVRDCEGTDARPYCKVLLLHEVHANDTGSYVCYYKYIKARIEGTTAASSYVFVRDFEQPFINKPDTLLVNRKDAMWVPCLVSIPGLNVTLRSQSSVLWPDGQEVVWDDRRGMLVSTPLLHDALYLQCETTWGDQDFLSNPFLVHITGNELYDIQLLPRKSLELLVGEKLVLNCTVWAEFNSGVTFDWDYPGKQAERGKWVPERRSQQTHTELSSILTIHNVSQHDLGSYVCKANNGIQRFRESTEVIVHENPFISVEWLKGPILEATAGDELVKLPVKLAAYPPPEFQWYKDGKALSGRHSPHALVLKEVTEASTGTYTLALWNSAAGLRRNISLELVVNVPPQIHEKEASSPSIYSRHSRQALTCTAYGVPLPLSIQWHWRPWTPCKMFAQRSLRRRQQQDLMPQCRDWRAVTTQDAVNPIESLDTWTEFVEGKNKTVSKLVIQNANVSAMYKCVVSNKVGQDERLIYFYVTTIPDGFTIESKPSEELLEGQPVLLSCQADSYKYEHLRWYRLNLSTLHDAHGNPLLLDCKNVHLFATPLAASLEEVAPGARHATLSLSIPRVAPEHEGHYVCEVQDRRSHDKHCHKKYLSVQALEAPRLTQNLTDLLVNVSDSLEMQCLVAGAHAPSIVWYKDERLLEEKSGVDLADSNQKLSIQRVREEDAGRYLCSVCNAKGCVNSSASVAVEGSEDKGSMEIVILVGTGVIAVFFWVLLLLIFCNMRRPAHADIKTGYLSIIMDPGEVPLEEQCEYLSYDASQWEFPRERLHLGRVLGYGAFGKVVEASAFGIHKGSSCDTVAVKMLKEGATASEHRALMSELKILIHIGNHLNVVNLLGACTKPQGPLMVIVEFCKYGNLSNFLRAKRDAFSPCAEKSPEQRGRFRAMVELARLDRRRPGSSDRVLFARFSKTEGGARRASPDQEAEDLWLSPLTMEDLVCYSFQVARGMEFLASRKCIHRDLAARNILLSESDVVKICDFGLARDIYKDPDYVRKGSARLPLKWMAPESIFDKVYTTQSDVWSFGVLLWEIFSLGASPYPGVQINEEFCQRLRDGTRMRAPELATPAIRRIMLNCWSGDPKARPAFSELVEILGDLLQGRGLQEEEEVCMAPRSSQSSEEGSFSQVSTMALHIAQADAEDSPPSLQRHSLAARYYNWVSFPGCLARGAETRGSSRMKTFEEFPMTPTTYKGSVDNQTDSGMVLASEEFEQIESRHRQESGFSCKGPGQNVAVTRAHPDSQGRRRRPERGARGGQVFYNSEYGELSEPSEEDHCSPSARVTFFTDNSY", "method_in_brief": "(§1)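 The compound was assayed at 10 μM in duplicate, using an ATP level near the Km determined for each individual kinase. Values were reported as percent of control and averaged across the two runs.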"}, "EphB2": {"target": "T2, EphB2 (Homo sapiens, UniProt P29323)", "T2 construct": "purchased Millipore, Inc. (KinaseProfiler service)", "method_in_brief": "as §1"}, "NEK6": {"target": "T3, NEK6 (Homo sapiens, UniProt Q9HC98)", "T3 construct": "purchased Millipore, Inc. (KinaseProfiler service)", "method_in_brief": "as §1"}, "Rsk2": {"target": "T4, Rsk2 (Homo sapiens, UniProt P51812)", "T4 construct": "purchased Millipore, Inc. (KinaseProfiler service)", "method_in_brief": "as §1"}, "Ron": {"target": "T5, Ron (Homo sapiens, UniProt Q04912)", "T5 construct": "purchased Millipore, Inc. (KinaseProfiler service)", "method_in_brief": "as §1"}, "CHK1": {"target": "T6, CHK1 (Homo sapiens, UniProt O14757)", "T6 construct": "purchased Millipore, Inc. (KinaseProfiler service)", "method_in_brief": "as §1"}, "Plk2": {"target": "T7, Plk2 (Homo sapiens, UniProt Q9NYY3)", "T7 construct": "purchased Millipore, Inc. (KinaseProfiler service)", "method_in_brief": "as §1"}, "IKKbeta": {"target": "T8, IKKbeta (Homo sapiens, UniProt O14920)", "T8 construct": "purchased Millipore, Inc. (KinaseProfiler service)", "T8 sequence (O14920 whole entry)": "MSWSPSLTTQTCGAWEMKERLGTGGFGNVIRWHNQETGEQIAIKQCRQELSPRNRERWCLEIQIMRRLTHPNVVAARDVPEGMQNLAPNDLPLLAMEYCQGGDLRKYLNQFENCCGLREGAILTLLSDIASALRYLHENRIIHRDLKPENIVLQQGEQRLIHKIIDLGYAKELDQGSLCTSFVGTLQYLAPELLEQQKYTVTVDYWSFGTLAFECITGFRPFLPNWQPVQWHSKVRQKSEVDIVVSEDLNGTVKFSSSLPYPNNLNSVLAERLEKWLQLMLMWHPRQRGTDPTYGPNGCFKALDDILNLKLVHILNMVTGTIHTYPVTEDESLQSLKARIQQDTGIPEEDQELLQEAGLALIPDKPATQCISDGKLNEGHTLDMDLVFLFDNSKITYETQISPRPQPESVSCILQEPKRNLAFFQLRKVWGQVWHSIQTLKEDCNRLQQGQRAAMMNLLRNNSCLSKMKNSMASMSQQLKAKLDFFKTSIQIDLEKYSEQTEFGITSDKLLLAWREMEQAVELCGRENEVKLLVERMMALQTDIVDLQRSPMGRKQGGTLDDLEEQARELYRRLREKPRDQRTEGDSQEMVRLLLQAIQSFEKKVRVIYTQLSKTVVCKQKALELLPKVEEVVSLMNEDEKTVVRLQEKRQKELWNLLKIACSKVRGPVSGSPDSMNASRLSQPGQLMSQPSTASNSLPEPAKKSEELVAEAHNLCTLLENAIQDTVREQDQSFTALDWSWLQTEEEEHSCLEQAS", "method_in_brief": "as §1"}, "NEK7": {"target": "T9, NEK7 (Homo sapiens, UniProt Q8TDX7)", "T9 construct": "purchased Millipore, Inc. (KinaseProfiler service)", "method_in_brief": "as §1"}, "SGK2": {"target": "T10, SGK2 (Homo sapiens, UniProt Q9HBY8)", "T10 construct": "purchased Millipore, Inc. (KinaseProfiler service)", "method_in_brief": "as §1"}, "EphA8": {"target": "T11, EphA8 (Homo sapiens, UniProt P29322)", "T11 construct": "purchased Millipore, Inc. (KinaseProfiler service)", "method_in_brief": "as §1"}, "IRAK1": {"target": "T12, IRAK1 (Homo sapiens, UniProt P51617)", "T12 construct": "purchased Millipore, Inc. (KinaseProfiler service)", "T12 sequence (P51617 whole entry)": "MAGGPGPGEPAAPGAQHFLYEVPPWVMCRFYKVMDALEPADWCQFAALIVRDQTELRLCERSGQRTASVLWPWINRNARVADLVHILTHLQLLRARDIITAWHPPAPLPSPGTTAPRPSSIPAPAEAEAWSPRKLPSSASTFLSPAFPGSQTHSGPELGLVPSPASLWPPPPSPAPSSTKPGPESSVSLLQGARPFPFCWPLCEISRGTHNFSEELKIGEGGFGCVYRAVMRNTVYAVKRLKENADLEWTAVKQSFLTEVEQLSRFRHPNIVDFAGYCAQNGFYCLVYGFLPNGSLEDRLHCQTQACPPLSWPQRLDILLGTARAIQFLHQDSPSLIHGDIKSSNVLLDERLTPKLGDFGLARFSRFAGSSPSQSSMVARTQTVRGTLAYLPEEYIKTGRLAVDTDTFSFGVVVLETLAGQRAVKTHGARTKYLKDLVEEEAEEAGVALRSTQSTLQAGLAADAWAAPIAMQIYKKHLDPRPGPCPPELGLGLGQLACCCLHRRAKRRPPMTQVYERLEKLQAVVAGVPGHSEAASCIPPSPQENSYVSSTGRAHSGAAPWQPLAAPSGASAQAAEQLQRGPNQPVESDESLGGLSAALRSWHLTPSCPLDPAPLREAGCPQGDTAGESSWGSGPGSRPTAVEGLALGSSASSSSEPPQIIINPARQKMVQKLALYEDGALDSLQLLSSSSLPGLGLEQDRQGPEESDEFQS", "method_in_brief": "as §1"}, "MARK1": {"target": "T13, MARK1 (Homo sapiens, UniProt Q9P0L2)", "T13 construct": "purchased Millipore, Inc. (KinaseProfiler service)", "method_in_brief": "as §1"}, "Pim-3": {"target": "T14, Pim-3 (Homo sapiens, UniProt Q86V86)", "T14 construct": "purchased Millipore, Inc. (KinaseProfiler service)", "method_in_brief": "as §1"}, "KIT": {"target": "T15, KIT (Homo sapiens, UniProt P10721)", "T15 construct": "purchased Millipore, Inc. (KinaseProfiler service)", "method_in_brief": "as §1"}, "FAK2": {"target": "T16, FAK2 (Homo sapiens, UniProt Q14289)", "T16 construct": "purchased Millipore, Inc. (KinaseProfiler service)", "method_in_brief": "as §1"}, "p38beta": {"target": "T17, p38beta (Homo sapiens, UniProt Q15759)", "T17 construct": "purchased Millipore, Inc. (KinaseProfiler service)", "method_in_brief": "as §1"}, "EGFR": {"target": "T18, EGFR (Homo sapiens, UniProt P00533)", "T18 construct": "purchased Millipore, Inc. (KinaseProfiler service)", "T18 sequence (P00533 25-1210)": "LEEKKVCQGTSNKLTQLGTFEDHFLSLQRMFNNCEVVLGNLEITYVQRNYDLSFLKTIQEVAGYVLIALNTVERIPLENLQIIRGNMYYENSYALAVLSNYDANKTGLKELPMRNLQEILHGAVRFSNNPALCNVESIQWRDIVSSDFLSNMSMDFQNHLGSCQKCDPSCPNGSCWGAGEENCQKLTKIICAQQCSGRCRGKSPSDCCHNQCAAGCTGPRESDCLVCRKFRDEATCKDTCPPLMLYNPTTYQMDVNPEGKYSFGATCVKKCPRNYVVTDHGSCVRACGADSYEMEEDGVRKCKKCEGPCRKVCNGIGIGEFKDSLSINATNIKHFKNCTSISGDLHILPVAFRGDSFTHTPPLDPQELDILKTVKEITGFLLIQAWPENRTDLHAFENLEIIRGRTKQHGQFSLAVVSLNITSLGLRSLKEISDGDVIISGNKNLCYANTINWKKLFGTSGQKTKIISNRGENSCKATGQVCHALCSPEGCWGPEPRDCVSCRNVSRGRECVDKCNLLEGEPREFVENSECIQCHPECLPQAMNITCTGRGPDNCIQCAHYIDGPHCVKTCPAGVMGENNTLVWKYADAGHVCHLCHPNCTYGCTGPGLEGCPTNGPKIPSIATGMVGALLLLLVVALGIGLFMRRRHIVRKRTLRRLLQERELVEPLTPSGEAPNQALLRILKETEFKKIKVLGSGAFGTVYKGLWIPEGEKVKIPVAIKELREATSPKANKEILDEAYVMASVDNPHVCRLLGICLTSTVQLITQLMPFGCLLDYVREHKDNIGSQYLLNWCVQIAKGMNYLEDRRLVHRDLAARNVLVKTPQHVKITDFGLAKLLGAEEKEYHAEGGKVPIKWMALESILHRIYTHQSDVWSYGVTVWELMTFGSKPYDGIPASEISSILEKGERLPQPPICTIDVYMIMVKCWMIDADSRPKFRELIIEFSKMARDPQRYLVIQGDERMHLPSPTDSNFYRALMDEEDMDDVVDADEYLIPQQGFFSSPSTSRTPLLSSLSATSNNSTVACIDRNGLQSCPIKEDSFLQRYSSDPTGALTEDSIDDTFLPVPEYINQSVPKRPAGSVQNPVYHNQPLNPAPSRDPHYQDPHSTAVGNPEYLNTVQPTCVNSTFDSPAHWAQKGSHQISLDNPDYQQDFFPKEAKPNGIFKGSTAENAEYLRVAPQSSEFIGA", "method_in_brief": "as §1"}, "EphA5": {"target": "T19, EphA5 (Homo sapiens, UniProt P54756)", "T19 construct": "purchased Millipore, Inc. (KinaseProfiler service)", "method_in_brief": "as §1"}, "STK33": {"target": "T20, STK33 (Homo sapiens, UniProt Q9BYT3)", "T20 construct": "purchased Millipore, Inc. (KinaseProfiler service)", "method_in_brief": "as §1"}, "PAK4": {"target": "T21, PAK4 (Homo sapiens, UniProt O96013)", "T21 construct": "purchased Millipore, Inc. (KinaseProfiler service)", "method_in_brief": "as §1"}, "DCAMKL2": {"target": "T22, DCAMKL2 (Homo sapiens, UniProt Q8N568)", "T22 construct": "purchased Millipore, Inc. (KinaseProfiler service)", "method_in_brief": "as §1"}, "NLK": {"target": "T23, NLK (Homo sapiens, UniProt Q9UBE8)", "T23 construct": "purchased Millipore, Inc. (KinaseProfiler service)", "method_in_brief": "as §1"}, "Ros": {"target": "T24, Ros (Homo sapiens, UniProt P08922)", "T24 construct": "purchased Millipore, Inc. (KinaseProfiler service)", "method_in_brief": "as §1"}, "CAMK4": {"target": "T25, CAMK4 (Homo sapiens, UniProt Q16566)", "T25 construct": "purchased Millipore, Inc. (KinaseProfiler service)", "method_in_brief": "as §1"}, "PRKG1beta": {"target": "T26, PRKG1beta (Homo sapiens, UniProt Q13976)", "T26 construct": "purchased Millipore, Inc. (KinaseProfiler service)", "method_in_brief": "as §1"}, "FGFR4": {"target": "T27, FGFR4 (Homo sapiens, UniProt P22455)", "T27 construct": "purchased Millipore, Inc. (KinaseProfiler service)", "method_in_brief": "as §1"}, "PRKG1alpha": {"target": "T28, PRKG1alpha (Homo sapiens, UniProt Q13976)", "T28 construct": "purchased Millipore, Inc. (KinaseProfiler service)", "method_in_brief": "as §1"}, "PKCbetaI": {"target": "T29, PKCbetaI (Homo sapiens, UniProt P05771)", "T29 construct": "purchased Millipore, Inc. (KinaseProfiler service)", "method_in_brief": "as §1"}, "CK1_y": {"system": "CK1_y", "method_in_brief": "as §1"}, "PKCalpha": {"target": "T30, PKCalpha (Homo sapiens, UniProt P17252)", "T30 construct": "purchased Millipore, Inc. (KinaseProfiler service)", "method_in_brief": "as §1"}, "PKCzeta": {"target": "T31, PKCzeta (Homo sapiens, UniProt Q05513)", "T31 construct": "purchased Millipore, Inc. (KinaseProfiler service)", "method_in_brief": "as §1"}, "Yes": {"target": "T32, Yes (Homo sapiens, UniProt P07947)", "T32 construct": "purchased Millipore, Inc. (KinaseProfiler service)", "method_in_brief": "as §1"}, "EphA7": {"target": "T33, EphA7 (Homo sapiens, UniProt Q15375)", "T33 construct": "purchased Millipore, Inc. (KinaseProfiler service)", "T33 sequence (Q15375 28-998)": "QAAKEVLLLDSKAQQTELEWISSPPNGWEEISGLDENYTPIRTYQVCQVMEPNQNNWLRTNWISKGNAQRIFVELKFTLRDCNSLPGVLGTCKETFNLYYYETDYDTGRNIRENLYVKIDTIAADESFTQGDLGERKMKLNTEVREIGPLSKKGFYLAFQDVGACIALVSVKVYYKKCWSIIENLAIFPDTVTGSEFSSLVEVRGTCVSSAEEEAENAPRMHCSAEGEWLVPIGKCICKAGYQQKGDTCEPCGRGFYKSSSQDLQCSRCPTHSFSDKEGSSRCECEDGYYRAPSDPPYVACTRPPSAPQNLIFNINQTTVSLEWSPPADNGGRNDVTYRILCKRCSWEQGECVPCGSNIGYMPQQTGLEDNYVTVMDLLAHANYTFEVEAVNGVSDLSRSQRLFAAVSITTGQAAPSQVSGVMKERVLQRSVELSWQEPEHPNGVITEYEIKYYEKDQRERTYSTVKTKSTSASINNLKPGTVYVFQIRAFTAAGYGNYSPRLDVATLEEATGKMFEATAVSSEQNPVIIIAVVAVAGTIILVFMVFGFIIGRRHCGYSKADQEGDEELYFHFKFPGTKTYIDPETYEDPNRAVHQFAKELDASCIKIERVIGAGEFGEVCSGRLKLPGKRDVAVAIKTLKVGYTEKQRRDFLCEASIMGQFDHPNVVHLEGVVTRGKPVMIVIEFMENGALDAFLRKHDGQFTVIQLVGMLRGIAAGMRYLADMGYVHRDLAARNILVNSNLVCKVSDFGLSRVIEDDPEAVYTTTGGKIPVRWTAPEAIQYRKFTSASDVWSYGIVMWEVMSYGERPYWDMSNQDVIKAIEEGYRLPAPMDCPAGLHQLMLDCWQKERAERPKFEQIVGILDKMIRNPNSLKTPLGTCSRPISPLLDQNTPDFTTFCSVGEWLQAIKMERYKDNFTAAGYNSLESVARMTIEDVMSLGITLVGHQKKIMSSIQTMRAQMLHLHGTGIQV", "method_in_brief": "as §1"}, "NEK3": {"target": "T34, NEK3 (Homo sapiens, UniProt P51956)", "T34 construct": "purchased Millipore, Inc. (KinaseProfiler service)", "method_in_brief": "as §1"}, "JAK3": {"target": "T35, JAK3 (Homo sapiens, UniProt P52333)", "T35 construct": "purchased Millipore, Inc. (KinaseProfiler service)", "method_in_brief": "as §1"}, "DDR2": {"target": "T36, DDR2 (Homo sapiens, UniProt Q16832)", "T36 construct": "purchased Millipore, Inc. (KinaseProfiler service)", "method_in_brief": "as §1"}, "Txk": {"target": "T37, Txk (Homo sapiens, UniProt P42681)", "T37 construct": "purchased Millipore, Inc. (KinaseProfiler service)", "method_in_brief": "as §1"}, "Fes": {"target": "T38, Fes (Homo sapiens, UniProt P07332)", "T38 construct": "purchased Millipore, Inc. (KinaseProfiler service)", "method_in_brief": "as §1"}, "PKD1": {"target": "T39, PKD1 (Homo sapiens, UniProt Q15139)", "T39 construct": "purchased Millipore, Inc. (KinaseProfiler service)", "method_in_brief": "as §1"}, "CK1gamma3": {"target": "T40, CK1gamma3 (Homo sapiens, UniProt Q9Y6M4)", "T40 construct": "purchased Millipore, Inc. (KinaseProfiler service)", "method_in_brief": "as §1"}},
  "data": [
    {"compound": "COCCN1C[C@@H](NC(=O)Nc2c(C)c(-c3cnc(C)nc3)nn2-c2ccccc2)[C@H](c2cccc(F)c2)C1", "note": "[Compound 1, 1-((3S,4R)-4-(3-fluorophenyl)-1-(2-methoxyethyl)pyrrolidin-3-yl)-3-(4-methyl-3-(2-methylpyrimidin-5-yl)-1-phenyl-1H-pyrazol-5-yl)urea]", "values": [
      {"measurement": "Avg POC", "setting": "Flt4", "value": 98.5, "unit": "POC"},
      {"measurement": "Avg POC", "setting": "EphB2", "value": 98, "unit": "POC"},
      {"measurement": "Avg POC", "setting": "NEK6", "value": 96, "unit": "POC"},
      {"measurement": "Avg POC", "setting": "Rsk2", "value": 93, "unit": "POC"},
      {"measurement": "Avg POC", "setting": "Ron", "value": 100, "unit": "POC"},
      {"measurement": "Avg POC", "setting": "CHK1", "value": 109, "unit": "POC"},
      {"measurement": "Avg POC", "setting": "Plk2", "value": 101, "unit": "POC"},
      {"measurement": "Avg POC", "setting": "IKKbeta", "value": 104.5, "unit": "POC"},
      {"measurement": "Avg POC", "setting": "NEK7", "value": 104, "unit": "POC"},
      {"measurement": "Avg POC", "setting": "SGK2", "value": 112, "unit": "POC"},
      {"measurement": "Avg POC", "setting": "EphA8", "value": 110, "unit": "POC"},
      {"measurement": "Avg POC", "setting": "IRAK1", "value": 103, "unit": "POC"},
      {"measurement": "Avg POC", "setting": "MARK1", "value": 100, "unit": "POC"},
      {"measurement": "Avg POC", "setting": "Pim-3", "value": 106.5, "unit": "POC"},
      {"measurement": "Avg POC", "setting": "KIT", "value": 97.5, "unit": "POC"},
      {"measurement": "Avg POC", "setting": "FAK2", "value": 92.5, "unit": "POC"},
      {"measurement": "Avg POC", "setting": "p38beta", "value": 102, "unit": "POC"},
      {"measurement": "Avg POC", "setting": "EGFR", "value": 95.5, "unit": "POC"},
      {"measurement": "Avg POC", "setting": "EphA5", "value": 109.5, "unit": "POC"},
      {"measurement": "Avg POC", "setting": "STK33", "value": 101, "unit": "POC"},
      {"measurement": "Avg POC", "setting": "PAK4", "value": 97, "unit": "POC"},
      {"measurement": "Avg POC", "setting": "DCAMKL2", "value": 135, "unit": "POC"},
      {"measurement": "Avg POC", "setting": "NLK", "value": 94.5, "unit": "POC"},
      {"measurement": "Avg POC", "setting": "Ros", "value": 112.5, "unit": "POC"},
      {"measurement": "Avg POC", "setting": "CAMK4", "value": 100, "unit": "POC"},
      {"measurement": "Avg POC", "setting": "PRKG1beta", "value": 95.5, "unit": "POC"},
      {"measurement": "Avg POC", "setting": "FGFR4", "value": 105, "unit": "POC"},
      {"measurement": "Avg POC", "setting": "PRKG1alpha", "value": 109.5, "unit": "POC"},
      {"measurement": "Avg POC", "setting": "PKCbetaI", "value": 102.5, "unit": "POC"},
      {"measurement": "Avg POC", "setting": "CK1_y", "value": 91.5, "unit": "POC"},
      {"measurement": "Avg POC", "setting": "PKCalpha", "value": 98.5, "unit": "POC"},
      {"measurement": "Avg POC", "setting": "PKCzeta", "value": 97.5, "unit": "POC"},
      {"measurement": "Avg POC", "setting": "Yes", "value": 98.5, "unit": "POC"},
      {"measurement": "Avg POC", "setting": "EphA7", "value": 109, "unit": "POC"},
      {"measurement": "Avg POC", "setting": "NEK3", "value": 104.5, "unit": "POC"},
      {"measurement": "Avg POC", "setting": "JAK3", "value": 95.5, "unit": "POC"},
      {"measurement": "Avg POC", "setting": "DDR2", "value": 121.5, "unit": "POC"},
      {"measurement": "Avg POC", "setting": "Txk", "value": 67, "unit": "POC"},
      {"measurement": "Avg POC", "setting": "Fes", "value": 102.5, "unit": "POC"},
      {"measurement": "Avg POC", "setting": "PKD1", "value": 94.5, "unit": "POC"},
      {"measurement": "Avg POC", "setting": "CK1gamma3", "value": 104.5, "unit": "POC"}
    ]}
  ]
}
